Drawing on PubChem BioAssay (NCI), this text covers GI50 and TGI for nine molecules.

Each structure is given as a SMILES string. Values joined by “and” are separate entries in the source; they are usually repeats but may differ in a detail not shown here. Equal entries are not always repeated.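 Dose response: 5 concentrations. Exposure: 48 h. Format: 96-well plates. Endpoint: linear interpolation; highest concentration if not reached. The concentration for 50% growth inhibition is given as GI50. Definition used: TGI = concentration required for complete inhibition of growth.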 Where only a bound is given, the exact number is not on record here.

Among the test systems are HT29 colon; RXF 393 renal; U251 CNS; DU-145 prostate; IGROV1 ovarian; SK-MEL-5 melanoma; A498 renal; SN12C renal; SNB-19 CNS; SK-MEL-2 melanoma.
Assay in all cases: growth of human tumour cells (NCI), 48 h

`CCOC(=O)c1cc(/C(=N\O)c2cc(OC)c(OC)c(OC)c2)n2cc(C)cc(C)c12`: the GI50 with HT29 colon is 3.08 µM; with RXF 393 renal it was 1.95 µM; in the experiment on U251 CNS it was 2.64 µM; in the experiment with DU-145 prostate, 3.67 µM; with IGROV1 ovarian, 3.21 µM; in the experiment on SK-MEL-5 melanoma, 2.19 µM. Besides, the figures for the GI50 in the experiment on A498 renal, with SN12C renal and with SNB-19 CNS were 1.99 µM, 3.86 µM and 4.57 µM, respectively. In addition, the TGI is over 100 µM in the experiment with HT29 colon; 5.26 µM with RXF 393 renal; 9.32 µM in the experiment on U251 CNS; over 100 µM in the experiment with DU-145 prostate; over 100 µM with IGROV1 ovarian; 5.79 µM with SK-MEL-5 melanoma. In addition, the TGI with A498 renal is 6.74 µM; in the experiment with SN12C renal it was over 100 µM; in the experiment with SNB-19 CNS, over 100 µM.
With `COc1ccc2c(c1)C(=O)c1c-2n(CCCn2ccnc2)c(=O)c2ccccc12`, the GI50 is 0.431 µM with RXF 393 renal; 0.126 µM in the experiment on U251 CNS; 0.247 µM in the experiment with DU-145 prostate; 0.204 µM in the experiment with IGROV1 ovarian; 0.843 µM in the experiment with SK-MEL-2 melanoma; 0.154 µM in the experiment on SK-MEL-5 melanoma. Also, the GI50 in the experiment on A498 renal was 0.471 µM; in the experiment on SN12C renal, 0.692 µM; in the experiment with SNB-19 CNS, 0.293 µM. Also, the TGI in the experiment with RXF 393 renal amounted to 2 µM; in the experiment on U251 CNS it was 2.6 µM; with DU-145 prostate, 4.66 µM; in the experiment with IGROV1 ovarian it was 2.55 µM; with SK-MEL-2 melanoma, 8.82 µM; in the experiment with SK-MEL-5 melanoma, 0.344 µM. Moreover, the TGI was 1.76 µM in the experiment with A498 renal, over 100 µM in the experiment on SN12C renal and over 46.5 µM in the experiment on SNB-19 CNS.
`CN(C)CCNC(=O)c1cccc(C(=O)Nc2ccccc2)c1[N+](=O)[O-]`: the TGI in the experiment with HT29 colon, in the experiment on U251 CNS, in the experiment on DU-145 prostate, in the experiment on IGROV1 ovarian, with SK-MEL-2 melanoma and with SK-MEL-5 melanoma was over 100 µM in each case. The TGI in the experiment with A498 renal, in the experiment with SN12C renal and with SNB-19 CNS was over 100 µM throughout.
In the case of `CCCCN=C(N)c1ccc(OCCSCCOc2ccc(C(N)=NCCCC)cc2)cc1`, the GI50 in the experiment on HT29 colon is 2.79 µM; in the experiment with RXF 393 renal it was 43.2 µM; in the experiment on U251 CNS it was 1.6 µM; in the experiment with DU-145 prostate, 10.7 µM; with IGROV1 ovarian, 16.4 µM; in the experiment with SK-MEL-2 melanoma, 5.36 µM. Also, the GI50 with SK-MEL-5 melanoma was 1.28 µM; with A498 renal, 15.2 µM; with SN12C renal, 1.76 µM. For the same molecule, the TGI with HT29 colon was over 100 µM; in the experiment on RXF 393 renal, over 100 µM; in the experiment on U251 CNS, over 100 µM; in the experiment with DU-145 prostate, over 100 µM; in the experiment on IGROV1 ovarian it was over 100 µM; in the experiment with SK-MEL-2 melanoma, 21.9 µM. The TGI is 14.4 µM with SK-MEL-5 melanoma, over 100 µM in the experiment with A498 renal and over 100 µM with SN12C renal.
With `CN(C)CCCn1c2c(c3ccccc3c1=O)C(=O)c1ccccc1-2`, the GI50 with HT29 colon is 0.749 µM; in the experiment on RXF 393 renal, 5.38 µM; in the experiment on U251 CNS, 1.47 µM; in the experiment with DU-145 prostate, 1.33 µM; in the experiment on IGROV1 ovarian, 2.29 µM; in the experiment on SK-MEL-2 melanoma it was 13.1 µM. In addition, the results for the GI50 in the experiment with A498 renal, with SN12C renal and in the experiment on SNB-19 CNS were 5.99 µM, 0.907 µM and 2.2 µM, respectively. In addition, the TGI is 4.51 µM with HT29 colon; 49.3 µM in the experiment with RXF 393 renal; 6.37 µM with U251 CNS; 8.54 µM with DU-145 prostate; over 100 µM in the experiment with IGROV1 ovarian; over 100 µM with SK-MEL-2 melanoma. Besides, the TGI in the experiment on A498 renal is 22.1 µM; with SN12C renal it was 3.07 µM; in the experiment on SNB-19 CNS, 21.9 µM.
In the case of `NC(N)=NCCCn1c2c(c3ccccc3c1=O)C(=O)c1ccccc1-2`, the GI50 was 32.6 µM in the experiment on HT29 colon; 7.82 µM with RXF 393 renal; 0.223 µM in the experiment with U251 CNS; 7.59 µM with DU-145 prostate; 10.6 µM in the experiment with IGROV1 ovarian; 19.5 µM in the experiment on SK-MEL-2 melanoma. Further, the GI50 in the experiment on SK-MEL-5 melanoma was 15.1 µM; with SN12C renal it was 0.229 µM; in the experiment with SNB-19 CNS, 18.5 µM. The TGI in the experiment on HT29 colon was over 100 µM; in the experiment on RXF 393 renal, 42.4 µM; with U251 CNS it was 0.637 µM; in the experiment on DU-145 prostate, 22.9 µM; with IGROV1 ovarian, 22.6 µM; with SK-MEL-2 melanoma it was 33.6 µM. In addition, the TGI stood at 29.5 µM in the experiment on SK-MEL-5 melanoma, 0.572 µM in the experiment on SN12C renal and 98.2 µM in the experiment on SNB-19 CNS.
Regarding `CC(=O)OC[C@]12CC[C@H]3[C@@H](C[C@H]4O[C@]45[C@@H](O)C=CC(=O)[C@]35C)[C@@H]1CC[C@@H]2[C@H](C)[C@H]1CC(C)=C(C)C(=O)O1`, the GI50 in the experiment with HT29 colon is 0.302 µM and 0.305 µM; in the experiment with RXF 393 renal it was 0.247 µM and 0.388 µM; in the experiment on U251 CNS, 0.688 µM and 0.742 µM; with IGROV1 ovarian, 0.706 µM and 0.924 µM; in the experiment with SK-MEL-2 melanoma, 0.752 µM and 0.484 µM; in the experiment on SK-MEL-5 melanoma it was 0.702 µM and 0.664 µM. The GI50 in the experiment with A498 renal was 0.852 µM and 1.2 µM; in the experiment with SN12C renal, 0.401 µM and 0.322 µM; with SNB-19 CNS, 0.7 µM and 1.16 µM. In addition, the TGI with HT29 colon is 0.716 µM and 0.961 µM; with RXF 393 renal, 0.791 µM and 1.13 µM; with U251 CNS, 0.91 µM and 1.95 µM; in the experiment on IGROV1 ovarian, 2.7 µM; in the experiment on SK-MEL-2 melanoma, 1.52 µM; with SK-MEL-5 melanoma, 2.02 µM. For the same molecule, the TGI with A498 renal was 2.77 µM; in the experiment with SN12C renal, 0.943 µM and 1.16 µM; with SNB-19 CNS, 0.899 µM and 2.52 µM.
With `CCOC(=O)c1c(CN2CCN(c3ccccc3)CC2)n(-c2ccccc2)c2cc(Br)c(O)cc12`, the GI50 in the experiment on HT29 colon is 11.8 µM; with U251 CNS, 6.43 µM; in the experiment with DU-145 prostate it was 12.5 µM; in the experiment with SK-MEL-2 melanoma, 17.2 µM; in the experiment on SK-MEL-5 melanoma it was 8.82 µM; with A498 renal, 12.7 µM. In addition, the GI50 is 5.68 µM in the experiment on SN12C renal and 21 µM with SNB-19 CNS. The TGI in the experiment with HT29 colon was determined as 32.5 µM; in the experiment on U251 CNS, 19 µM; with DU-145 prostate it was 28.2 µM; in the experiment on SK-MEL-2 melanoma it was 36.2 µM; with SK-MEL-5 melanoma, 23.1 µM; with A498 renal it was 26.8 µM. Moreover, the TGI in the experiment with SN12C renal is 18.5 µM; with SNB-19 CNS it was 53.5 µM.
With `COc1cc2oc(-c3ccc(O)cc3)cc(=O)c2c(OC)c1OC`, the TGI in the experiment with HT29 colon, in the experiment on RXF 393 renal, in the experiment on U251 CNS, in the experiment with DU-145 prostate, with IGROV1 ovarian and with SK-MEL-5 melanoma was over 100 µM in each case. Further, the TGI with A498 renal, in the experiment on SN12C renal and in the experiment on SNB-19 CNS was over 100 µM each time.
